This passage reports Activity results from ChEMBL document CHEMBL3217454, “Structureactivity relationship studies using peptide arrays: the example of HIV-1 Revintegrase interaction” (Medchemcomm, 2013).

SMILES strings stand for the structures. Peptide text beside a SMILES is read from it.

The subject of experiment [1] is Human immunodeficiency virus 1. Briefly: Binding affinity to HLT-tagged HIV-1 Rev measured after overnight incubation by chemiluminescence analysis relative to IN 174-188. Also on record: concentration or dose not given beside the values.
The target in experiment [2] is Human immunodeficiency virus type 1 integrase (Human immunodeficiency virus 1) (UniProt Q7ZJM1). Briefly: Binding affinity to HIV-1 integrase measured after overnight incubation by chemiluminescence analysis relative to IN 174-188. Further details: concentration or dose not given beside the values.
Human immunodeficiency virus type 1 integrase (Human immunodeficiency virus 1), sequence (Q7ZJM1 as listed by the source): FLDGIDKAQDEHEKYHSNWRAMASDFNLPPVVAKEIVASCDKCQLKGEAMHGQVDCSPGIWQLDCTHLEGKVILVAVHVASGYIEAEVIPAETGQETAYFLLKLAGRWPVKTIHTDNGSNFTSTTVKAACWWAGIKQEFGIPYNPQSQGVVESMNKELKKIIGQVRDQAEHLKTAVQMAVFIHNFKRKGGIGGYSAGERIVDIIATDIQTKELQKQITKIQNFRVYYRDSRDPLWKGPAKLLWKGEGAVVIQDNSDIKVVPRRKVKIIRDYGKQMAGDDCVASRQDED

For `CC[C@H](C)[C@@H](NC(=O)[C@H](Cc1ccccc1)NC(=O)[C@@H](NC(=O)[C@H](C)NC(=O)[C@H](CCSC)NC(=O)[C@H](CCC(N)=O)NC(=O)[C@@H](NC(=O)[C@H](C)NC(=O)[C@@H](N)[C@@H](C)O)C(C)C)C(C)C)C(=O)N[C@@H](Cc1cnc[nH]1)C(=O)N[C@@H](CC(N)=O)C(=O)N[C@@H](Cc1ccccc1)C(=O)N[C@@H](CCCCN)C(=O)N[C@@H](CCCNC(=N)N)C(=O)N[C@@H](CCCCN)C(=O)O`, the Activity in experiment [1] came out at 108%; in experiment [2], 99%.

Consider `CC[C@H](C)[C@H](NC(=O)[C@@H](Cc1ccccc1)NC(=O)[C@@H](NC(=O)[C@H](C)NC(=O)[C@H](CCSC)NC(=O)[C@H](CCC(N)=O)NC(=O)[C@@H](NC(=O)[C@H](C)NC(=O)[C@@H](N)[C@@H](C)O)C(C)C)C(C)C)C(=O)N[C@@H](Cc1cnc[nH]1)C(=O)N[C@@H](CC(N)=O)C(=O)N[C@@H](Cc1ccccc1)C(=O)N[C@@H](CCCCN)C(=O)N[C@@H](CCCNC(=N)N)C(=O)N[C@@H](CCCCN)C(=O)O`, for which the Activity in experiment [1] worked out at 231%; in experiment [2] it was 120%.

Turning to `CC[C@H](C)[C@H](NC(=O)[C@H](Cc1ccccc1)NC(=O)[C@@H](NC(=O)[C@@H](C)NC(=O)[C@H](CCSC)NC(=O)[C@H](CCC(N)=O)NC(=O)[C@@H](NC(=O)[C@H](C)NC(=O)[C@@H](N)[C@@H](C)O)C(C)C)C(C)C)C(=O)N[C@@H](Cc1cnc[nH]1)C(=O)N[C@@H](CC(N)=O)C(=O)N[C@@H](Cc1ccccc1)C(=O)N[C@@H](CCCCN)C(=O)N[C@@H](CCCNC(=N)N)C(=O)N[C@@H](CCCCN)C(=O)O`, the Activity is 194% in experiment [1] and 142% in experiment [2].

`CC[C@H](C)[C@H](NC(=O)[C@H](Cc1ccccc1)NC(=O)[C@@H](NC(=O)[C@H](C)NC(=O)[C@@H](CCSC)NC(=O)[C@H](CCC(N)=O)NC(=O)[C@@H](NC(=O)[C@H](C)NC(=O)[C@@H](N)[C@@H](C)O)C(C)C)C(C)C)C(=O)N[C@@H](Cc1cnc[nH]1)C(=O)N[C@@H](CC(N)=O)C(=O)N[C@@H](Cc1ccccc1)C(=O)N[C@@H](CCCCN)C(=O)N[C@@H](CCCNC(=N)N)C(=O)N[C@@H](CCCCN)C(=O)O`: the Activity in experiment [1] worked out at 196%; in experiment [2], 127%.

`CC[C@H](C)[C@H](NC(=O)[C@H](Cc1ccccc1)NC(=O)[C@@H](NC(=O)[C@H](C)NC(=O)[C@H](CCSC)NC(=O)[C@@H](CCC(N)=O)NC(=O)[C@@H](NC(=O)[C@H](C)NC(=O)[C@@H](N)[C@@H](C)O)C(C)C)C(C)C)C(=O)N[C@@H](Cc1cnc[nH]1)C(=O)N[C@@H](CC(N)=O)C(=O)N[C@@H](Cc1ccccc1)C(=O)N[C@@H](CCCCN)C(=O)N[C@@H](CCCNC(=N)N)C(=O)N[C@@H](CCCCN)C(=O)O`: the Activity in experiment [1] was 173%; in experiment [2], 154%.

`CC[C@H](C)[C@H](NC(=O)[C@H](Cc1ccccc1)NC(=O)[C@@H](NC(=O)[C@H](C)NC(=O)[C@H](CCSC)NC(=O)[C@H](CCC(N)=O)NC(=O)[C@@H](NC(=O)[C@@H](C)NC(=O)[C@@H](N)[C@@H](C)O)C(C)C)C(C)C)C(=O)N[C@@H](Cc1cnc[nH]1)C(=O)N[C@@H](CC(N)=O)C(=O)N[C@@H](Cc1ccccc1)C(=O)N[C@@H](CCCCN)C(=O)N[C@@H](CCCNC(=N)N)C(=O)N[C@@H](CCCCN)C(=O)O`: the Activity in experiment [1] is 209%; in experiment [2], 105%.

On to `CC[C@H](C)[C@H](NC(=O)[C@H](Cc1ccccc1)NC(=O)[C@@H](NC(=O)[C@H](C)NC(=O)[C@H](CCSC)NC(=O)[C@H](CCC(N)=O)NC(=O)[C@@H](NC(=O)[C@H](C)NC(=O)[C@@H](N)[C@@H](C)O)C(C)C)C(C)C)C(=O)N[C@@H](Cc1cnc[nH]1)C(=O)N[C@@H](CC(N)=O)C(=O)N[C@@H](Cc1ccccc1)C(=O)N[C@@H](CCCCN)C(=O)N[C@@H](CCCNC(=N)N)C(=O)N[C@H](CCCCN)C(=O)O`, for which the Activity amounted to 110% in experiment [1] and 86% in experiment [2].

`CC[C@H](C)[C@H](NC(=O)[C@H](Cc1ccccc1)NC(=O)[C@@H](NC(=O)[C@H](C)NC(=O)[C@H](CCSC)NC(=O)[C@H](CCC(N)=O)NC(=O)[C@@H](NC(=O)[C@H](C)NC(=O)[C@@H](N)[C@@H](C)O)C(C)C)C(C)C)C(=O)N[C@@H](Cc1cnc[nH]1)C(=O)N[C@@H](CC(N)=O)C(=O)N[C@@H](Cc1ccccc1)C(=O)N[C@@H](CCCCN)C(=O)N[C@H](CCCNC(=N)N)C(=O)N[C@@H](CCCCN)C(=O)O`: the Activity worked out at 169% in experiment [1] and 93% in experiment [2].

Turning to `CC[C@H](C)[C@H](NC(=O)[C@H](Cc1ccccc1)NC(=O)[C@@H](NC(=O)[C@H](C)NC(=O)[C@H](CCSC)NC(=O)[C@H](CCC(N)=O)NC(=O)[C@@H](NC(=O)[C@H](C)NC(=O)[C@@H](N)[C@@H](C)O)C(C)C)C(C)C)C(=O)N[C@@H](Cc1cnc[nH]1)C(=O)N[C@@H](CC(N)=O)C(=O)N[C@@H](Cc1ccccc1)C(=O)N[C@H](CCCCN)C(=O)N[C@@H](CCCNC(=N)N)C(=O)N[C@@H](CCCCN)C(=O)O`, the figures for the Activity in experiment [1] and in experiment [2] were 120% and 110%, respectively.

Take `CC[C@H](C)[C@H](NC(=O)[C@H](Cc1ccccc1)NC(=O)[C@@H](NC(=O)[C@H](C)NC(=O)[C@H](CCSC)NC(=O)[C@H](CCC(N)=O)NC(=O)[C@@H](NC(=O)[C@H](C)NC(=O)[C@@H](N)[C@@H](C)O)C(C)C)C(C)C)C(=O)N[C@@H](Cc1cnc[nH]1)C(=O)N[C@@H](CC(N)=O)C(=O)N[C@H](Cc1ccccc1)C(=O)N[C@@H](CCCCN)C(=O)N[C@@H](CCCNC(=N)N)C(=O)N[C@@H](CCCCN)C(=O)O`: the Activity in experiment [1] came out at 156%; in experiment [2] it was 112%.

Regarding `CC[C@H](C)[C@H](NC(=O)[C@H](Cc1ccccc1)NC(=O)[C@@H](NC(=O)[C@H](C)NC(=O)[C@H](CCSC)NC(=O)[C@H](CCC(N)=O)NC(=O)[C@@H](NC(=O)[C@H](C)NC(=O)[C@@H](N)[C@@H](C)O)C(C)C)C(C)C)C(=O)N[C@@H](Cc1cnc[nH]1)C(=O)N[C@H](CC(N)=O)C(=O)N[C@@H](Cc1ccccc1)C(=O)N[C@@H](CCCCN)C(=O)N[C@@H](CCCNC(=N)N)C(=O)N[C@@H](CCCCN)C(=O)O`, the Activity is 92% in experiment [1] and 116% in experiment [2].

With `CC[C@H](C)[C@H](NC(=O)[C@H](Cc1ccccc1)NC(=O)[C@@H](NC(=O)[C@H](C)NC(=O)[C@H](CCSC)NC(=O)[C@H](CCC(N)=O)NC(=O)[C@@H](NC(=O)[C@H](C)NC(=O)[C@@H](N)[C@@H](C)O)C(C)C)C(C)C)C(=O)N[C@H](Cc1cnc[nH]1)C(=O)N[C@@H](CC(N)=O)C(=O)N[C@@H](Cc1ccccc1)C(=O)N[C@@H](CCCCN)C(=O)N[C@@H](CCCNC(=N)N)C(=O)N[C@@H](CCCCN)C(=O)O`, the Activity in experiment [1] and in experiment [2] was 105% each time.

For the compound `CC[C@H](C)[C@H](NC(=O)[C@H](Cc1ccccc1)NC(=O)[C@@H](NC(=O)[C@H](C)NC(=O)[C@H](CCSC)NC(=O)[C@H](CCC(N)=O)NC(=O)[C@@H](NC(=O)[C@H](C)NC(=O)[C@H](N)[C@@H](C)O)C(C)C)C(C)C)C(=O)N[C@@H](Cc1cnc[nH]1)C(=O)N[C@@H](CC(N)=O)C(=O)N[C@@H](Cc1ccccc1)C(=O)N[C@@H](CCCCN)C(=O)N[C@@H](CCCNC(=N)N)C(=O)N[C@@H](CCCCN)C(=O)O`, the Activity is 141% in experiment [1] and 73% in experiment [2].

Regarding `CC[C@H](C)[C@H](NC(=O)[C@H](Cc1ccccc1)NC(=O)[C@@H](NC(=O)[C@H](C)NC(=O)[C@H](CCSC)NC(=O)[C@H](CCC(N)=O)NC(=O)[C@H](NC(=O)[C@H](C)NC(=O)[C@@H](N)[C@@H](C)O)C(C)C)C(C)C)C(=O)N[C@@H](Cc1cnc[nH]1)C(=O)N[C@@H](CC(N)=O)C(=O)N[C@@H](Cc1ccccc1)C(=O)N[C@@H](CCCCN)C(=O)N[C@@H](CCCNC(=N)N)C(=O)N[C@@H](CCCCN)C(=O)O`, the figures for the Activity in experiment [1] and in experiment [2] were 226% and 115%, respectively.

Take `CC[C@H](C)[C@H](NC(=O)[C@H](Cc1ccccc1)NC(=O)[C@H](NC(=O)[C@H](C)NC(=O)[C@H](CCSC)NC(=O)[C@H](CCC(N)=O)NC(=O)[C@@H](NC(=O)[C@H](C)NC(=O)[C@@H](N)[C@@H](C)O)C(C)C)C(C)C)C(=O)N[C@@H](Cc1cnc[nH]1)C(=O)N[C@@H](CC(N)=O)C(=O)N[C@@H](Cc1ccccc1)C(=O)N[C@@H](CCCCN)C(=O)N[C@@H](CCCNC(=N)N)C(=O)N[C@@H](CCCCN)C(=O)O`: the figures for the Activity in experiment [1] and in experiment [2] were 152% and 108%, respectively.

Turning to `CC[C@H](C)[C@H](NC(=O)[C@H](Cc1ccccc1)NC(=O)[C@@H](NC(=O)[C@H](C)NC(=O)[C@H](CCSC)NC(=O)[C@H](CCC(N)=O)NC(=O)[C@@H](NC(=O)[C@H](C)NC(=O)[C@H](C)N)C(C)C)C(C)C)C(=O)N[C@@H](Cc1cnc[nH]1)C(=O)N[C@@H](CC(N)=O)C(=O)N[C@@H](Cc1ccccc1)C(=O)N[C@@H](CCCCN)C(=O)N[C@@H](CCCNC(=N)N)C(=O)N[C@@H](CCCCN)C(=O)O` (H-AAVQMAVFIHNFKRK-OH), the Activity in experiment [1] amounted to 80%; in experiment [2] it was 83%.

`CC[C@H](C)[C@H](NC(=O)[C@H](Cc1ccccc1)NC(=O)[C@@H](NC(=O)[C@H](C)N)C(C)C)C(=O)N[C@@H](Cc1cnc[nH]1)C(=O)N[C@@H](CC(N)=O)C(=O)N[C@@H](Cc1ccccc1)C(=O)N[C@@H](CCCCN)C(=O)N[C@@H](CCCNC(=N)N)C(=O)N[C@@H](CCCCN)C(=O)O` (H-AVFIHNFKRK-OH): the figures for the Activity in experiment [1] and in experiment [2] were 111% and 120%, respectively.

Take `CC[C@H](C)[C@H](NC(=O)[C@H](Cc1ccccc1)NC(=O)[C@@H](NC(=O)[C@H](C)NC(=O)[C@H](CCSC)NC(=O)[C@H](CCC(N)=O)NC(=O)[C@@H](NC(=O)[C@H](C)N)C(C)C)C(C)C)C(=O)N[C@@H](Cc1cnc[nH]1)C(=O)N[C@@H](CC(N)=O)C(=O)N[C@@H](Cc1ccccc1)C(=O)N[C@@H](CCCCN)C(=O)N[C@@H](CCCNC(=N)N)C(=O)N[C@@H](CCCCN)C(=O)O` (H-AVQMAVFIHNFKRK-OH): the Activity in experiment [1] was determined as 141%; in experiment [2] it was 99%.

On to `CC[C@H](C)[C@H](NC(=O)[C@@H](N)Cc1ccccc1)C(=O)N[C@@H](Cc1cnc[nH]1)C(=O)N[C@@H](CC(N)=O)C(=O)N[C@@H](Cc1ccccc1)C(=O)N[C@@H](CCCCN)C(=O)N[C@@H](CCCNC(=N)N)C(=O)N[C@@H](CCCCN)C(=O)O` (H-FIHNFKRK-OH), for which the results for the Activity in experiment [1] and in experiment [2] were 69% and 133%, respectively.
